In patent US8080423B2, “Reagent containing protease reaction promoter and/or colorant stabilizer” (Asahi Kasei Pharma Corporation, priority 2004, dated 2011):

What was measured:
Type in all cases: physicochemical
[1] = Screening of stabilizer for colorant, DA64 (Example 13); details: 37° C.; for blank (distilled water) change in absorbance: DA-64, 750 nm, additives at conc. (1%; IDA 1 mM; Zn, Al 0.1 mM; ferrocyanide 0.01 mM; sorbitol 5%; DMSO 10%); for change in absorbance when 500 μM of hydrogen peroxide was measured: DA-64
Procedure: (§1) The following substances were used as test samples. Note that concentrations described in parentheses each represent a final concentration of the substance in the reagent R-1.
(§2) Tween-20 (1%), Brij35 (1%), Triton X-100 (1%), deoxycholic acid (1%), imino-diacetic acid (IDA; 1 mM), ZnSO4 (0.1 mM), AlCl3 (0.1 mM), potassium ferrocyanate (0.01 mM), sorbitol (5%), glucose (5%), sodium nitrite (2 mM), dimethylsulfoxide (DMSO; 10%) (those substances are manufactured by Wako Pure Chemical Industries, Inc.), 2-hydroxypropyl-β-cyclodextrin (2HP β CD; 0.5%, 2%, 5%) and methyl-β-cyclodextrin (M β CD; 0.5%, 2%, 5%) (those substances are manufactured by Nihon Shokuhin Kako Co., Ltd.).
(§3) 500 μl of the R-1 reagent and 500 μl of the R-2 which had been incubated to 37° C. were mixed. The mixture was incubated to 37° C. for 2 minutes, and absorbance thereof (A0) was measured. The mixture was added with 10 μl of 500 μM hydrogen peroxide or distilled water. The whole was incubated to 37° C., and absorbance exactly 5 minutes after the addition of hydrogen peroxide (A1) was measured, to calculate a change in absorbance ΔA (A1-A0). The absorbance was measured using a wavelength of 750 nm when DA64 was used as the colorant, a wavelength of 660 nm when DA67 was used as the colorant, and a wavelength of 570 nm when 4-AA-TOOS was used as the colorant.
(§4) Immediately after the preparation of the reagent, the reagent was preserved at 37° C. for 2 days and 9 days, and measurement of sensitivity of a blank which was distilled water and of hydrogen peroxide was performed.

[2] = Screening of stabilizer for colorant, DA67 (Example 13); details: 37° C.; for blank (distilled water) change in absorbance: DA-67, 660 nm; for change in absorbance when 500 μM of hydrogen peroxide was measured: DA-67
Procedure: as §1, §2, §3, §4

[3] = Screening of stabilizer for colorant, MBTH-TOOS (Example 13); details: MBTH-TOOS, 37° C.; for blank (distilled water) change in absorbance: 570 nm, additives at conc. (1%; IDA 1 mM; Zn, Al 0.1 mM; ferrocyanide 0.01 mM; sorbitol 5%; DMSO 10%)
[4] = Screening of stabilizer for colorant, overall statements (Example 13); details: Tables 2-1 and 2-2
Procedure: as §2, §3, §4

[5] = 0 days, additives at conc. (1%; IDA 1 mM; Zn, Al 0.1 mM; ferrocyanide 0.01 mM; sorbitol 5%; DMSO 10%)
[6] = 2 days, additives at conc. (1%; IDA 1 mM; Zn, Al 0.1 mM; ferrocyanide 0.01 mM; sorbitol 5%; DMSO 10%)
[7] = 9 days, additives at b284 conc. (Zn, Al 0.1 mM; ferrocyanide 0.01 mM)

| Substance | blank (distilled water) change in absorbance ([1]; 0 days) [Abs] | blank (distilled water) change in absorbance ([1]; 2 days) [Abs] | blank (distilled water) change in absorbance ([1]; 9 days) [Abs] | change in absorbance when 500 μM of hydrogen peroxide was measured ([1]; 0 days, cyclodextrin 0.5%) | change in absorbance when 500 μM of hydrogen peroxide was measured ([1]; 0 days, cyclodextrin 2.0%) | change in absorbance when 500 μM of hydrogen peroxide was measured ([1]; 0 days, cyclodextrin 5.0%) | change in absorbance when 500 μM of hydrogen peroxide was measured ([1]; 2 days, cyclodextrin 0.5%) | change in absorbance when 500 μM of hydrogen peroxide was measured ([1]; 2 days, cyclodextrin 2.0%) | change in absorbance when 500 μM of hydrogen peroxide was measured ([1]; 2 days, cyclodextrin 5.0%) | change in absorbance when 500 μM of hydrogen peroxide was measured ([1]; 9 days, cyclodextrin 0.5%) | change in absorbance when 500 μM of hydrogen peroxide was measured ([1]; 9 days, cyclodextrin 2.0%) | change in absorbance when 500 μM of hydrogen peroxide was measured ([1]; 9 days, cyclodextrin 5.0%) | blank (distilled water) change in absorbance [2, 5] [Abs] | blank (distilled water) change in absorbance [2, 6] [Abs] | blank (distilled water) change in absorbance [2, 7] [Abs] | change in absorbance when 500 μM of hydrogen peroxide was measured ([2]; 0 days, cyclodextrin 0.5%) | change in absorbance when 500 μM of hydrogen peroxide was measured ([2]; 0 days, cyclodextrin 2.0%) | change in absorbance when 500 μM of hydrogen peroxide was measured ([2]; 0 days, cyclodextrin 5.0%) | change in absorbance when 500 μM of hydrogen peroxide was measured ([2]; 2 days, cyclodextrin 0.5%) | change in absorbance when 500 μM of hydrogen peroxide was measured ([2]; 2 days, cyclodextrin 2.0%) | also measured |
| --- | --- | --- | --- | --- | --- | --- | --- | --- | --- | --- | --- | --- | --- | --- | --- | --- | --- | --- | --- | --- | --- |
| methyl-β-cyclodextrin [MβCD] | −0.01 | 0.005 | 0.006 | 0.371 | 0.376 | 0.365 | 0.302 | 0.309 | 0.315 | 0.266 | 0.271 | 0.273 | 0.133 | 0.657 | 1.430 | 0.516 | 0.519 | 0.515 | 0.355 | 0.361 | change in absorbance when 500 μM of hydrogen peroxide was measured ([2]; 2 days, cyclodextrin 5.0%): 0.364; change in absorbance when 500 μM of hydrogen peroxide was measured ([2]; 9 days, cyclodextrin 0.5%): 0.306; change in absorbance when 500 μM of hydrogen peroxide was measured ([2]; 9 days, cyclodextrin 2.0%): 0.311; change in absorbance when 500 μM of hydrogen peroxide was measured ([2]; 9 days, cyclodextrin 5.0%): 0.323; blank (distilled water) change in absorbance ([3]; 0 days): 0.115 Abs; blank (distilled water) change in absorbance ([3]; 2 days): 0.757 Abs; change in absorbance when 500 μM of hydrogen peroxide was measured ([3]; 0 days, cyclodextrin 0.5%): 0.175; change in absorbance when 500 μM of hydrogen peroxide was measured ([3]; 0 days, cyclodextrin 2.0%): 0.18; change in absorbance when 500 μM of hydrogen peroxide was measured ([3]; 0 days, cyclodextrin 5.0%): 0.181; change in absorbance when 500 μM of hydrogen peroxide was measured ([3]; 2 days, cyclodextrin 0.5%): 0.135; change in absorbance when 500 μM of hydrogen peroxide was measured ([3]; 2 days, cyclodextrin 2.0%): 0.136; change in absorbance when 500 μM of hydrogen peroxide was measured ([3]; 2 days, cyclodextrin 5.0%): 0.145; effect on the blank during preservation (in words) [4]: suppressing effects on the blank |
| 2-hydroxypropyl-β-cyclodextrin [2HPβCD] | −0.007 | 0.007 | 0.010 | 0.375 | 0.386 | 0.385 | 0.315 | 0.322 | 0.326 | 0.251 | 0.269 | 0.271 | 0.119 | 0.762 | 1.822 | 0.531 | 0.522 | 0.528 | 0.301 | 0.306 | change in absorbance when 500 μM of hydrogen peroxide was measured ([2]; 2 days, cyclodextrin 5.0%): 0.309; change in absorbance when 500 μM of hydrogen peroxide was measured ([2]; 9 days, cyclodextrin 0.5%): 0.277; change in absorbance when 500 μM of hydrogen peroxide was measured ([2]; 9 days, cyclodextrin 2.0%): 0.279; change in absorbance when 500 μM of hydrogen peroxide was measured ([2]; 9 days, cyclodextrin 5.0%): 0.281; blank (distilled water) change in absorbance ([3]; 0 days): 0.166 Abs; blank (distilled water) change in absorbance ([3]; 2 days): 0.815 Abs; change in absorbance when 500 μM of hydrogen peroxide was measured ([3]; 0 days, cyclodextrin 0.5%): 0.199; change in absorbance when 500 μM of hydrogen peroxide was measured ([3]; 0 days, cyclodextrin 2.0%): 0.200; change in absorbance when 500 μM of hydrogen peroxide was measured ([3]; 0 days, cyclodextrin 5.0%): 0.203; change in absorbance when 500 μM of hydrogen peroxide was measured ([3]; 2 days, cyclodextrin 0.5%): 0.145; change in absorbance when 500 μM of hydrogen peroxide was measured ([3]; 2 days, cyclodextrin 2.0%): 0.155; change in absorbance when 500 μM of hydrogen peroxide was measured ([3]; 2 days, cyclodextrin 5.0%): 0.159; effect on the blank during preservation (in words) [4]: suppressing effects on the blank |
